The values that follow come from patent US9884063B2, “Amido-substituted azole compounds” (Bayer Pharma Aktiengesellschaft, priority 2014, dated 2018).

Assay [1] concerns wildtype Wnt signaling cascade. As to the kind of experiment: HEK293 TOP Assay (Super TopFlash luciferase reporter, Wnt-3a stimulated). It counts as cell-based. Particulars: Homo sapiens, HEK293, 16 h. In short, it runs like this:
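Compounds (50 μM down to 15 nM, 3.16-fold steps, in CAFTY buffer pH 7.4, 2 mM Ca2+, 0.01% BSA) tested in parallel on TOP and FOP HEK293 reporter lines to define selective wildtype Wnt inhibition. Pathway driven by recombinant human Wnt-3a applied at 2500–5 ng/ml in two-fold dilutions.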
(In a reporter assay the amount or activity of a reporter protein is the signal.)

The target in another assay is T1, TNKS2 (Homo sapiens, UniProt Q9H2K2).
T1 sequence (Q9H2K2 1-1166): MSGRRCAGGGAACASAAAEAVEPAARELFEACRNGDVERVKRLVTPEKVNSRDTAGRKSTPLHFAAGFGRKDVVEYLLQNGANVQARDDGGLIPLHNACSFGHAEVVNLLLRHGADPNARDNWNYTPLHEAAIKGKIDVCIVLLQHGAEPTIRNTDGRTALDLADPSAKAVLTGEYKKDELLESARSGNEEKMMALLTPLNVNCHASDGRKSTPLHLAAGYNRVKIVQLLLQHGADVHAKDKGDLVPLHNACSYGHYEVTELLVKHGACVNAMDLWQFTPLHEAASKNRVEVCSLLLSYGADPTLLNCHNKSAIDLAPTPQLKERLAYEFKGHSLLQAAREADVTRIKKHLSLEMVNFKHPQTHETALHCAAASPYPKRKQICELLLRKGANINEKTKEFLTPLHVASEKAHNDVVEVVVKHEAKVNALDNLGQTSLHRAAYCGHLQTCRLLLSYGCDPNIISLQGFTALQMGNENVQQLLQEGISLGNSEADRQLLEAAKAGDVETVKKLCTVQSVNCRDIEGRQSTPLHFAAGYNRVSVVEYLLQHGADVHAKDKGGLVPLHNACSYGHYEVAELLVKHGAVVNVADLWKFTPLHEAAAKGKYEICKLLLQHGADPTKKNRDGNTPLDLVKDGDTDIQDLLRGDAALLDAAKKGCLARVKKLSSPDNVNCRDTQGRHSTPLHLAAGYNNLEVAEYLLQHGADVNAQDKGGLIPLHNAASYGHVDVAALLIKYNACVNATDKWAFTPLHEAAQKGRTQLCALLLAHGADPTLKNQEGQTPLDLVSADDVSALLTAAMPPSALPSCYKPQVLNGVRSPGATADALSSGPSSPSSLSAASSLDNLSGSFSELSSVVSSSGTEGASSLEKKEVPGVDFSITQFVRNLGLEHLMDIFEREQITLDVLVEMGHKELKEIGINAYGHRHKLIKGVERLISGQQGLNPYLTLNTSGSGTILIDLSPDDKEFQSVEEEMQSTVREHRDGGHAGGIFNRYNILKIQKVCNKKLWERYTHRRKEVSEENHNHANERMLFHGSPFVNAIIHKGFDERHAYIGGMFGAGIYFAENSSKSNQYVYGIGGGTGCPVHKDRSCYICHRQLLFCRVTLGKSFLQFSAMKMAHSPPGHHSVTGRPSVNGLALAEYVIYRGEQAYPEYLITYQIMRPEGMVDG
The experiment in a line: Modified TNKS2 Assay 2 (auto-parsylation, [3H]-NAD+ SPA). It counts as biochemical. Particulars: 6 nM TNKS2, 96 well. How it is done: The potency of selected compounds according to the invention was assessed applying an modified in vitro inhibition assay. Here, the TNKS2 catalyzed NAD^+-dependent ribosylation of the enzyme itself (auto-parsylation) was detected using [^3H]-NAD^+ as substrate and applying the scintillation proximity assay (SPA) method to detect tritium-labeled, parsylated TNKS2. The intensity of the readout signal is proportional to the incorporated [^3H]-NAD^+. Inhibition of TNKS2 leads to a decreased incorporation of [^3H]-NAD^+ and consequently to a lower readout signal intensity. The concentration of a test compound which inhibits the enzyme activity by 50% (corresponds to half of the normed readout signal intensity) is reported as IC50.
The assay was conducted in a 96 well MTP format with the identical TNKS2 enzyme sample and NAD^+ sample as in the histone ribosylation assay with the following modifications: TNKS2 enzyme sample was diluted with a modified assay buffer (50 mM MES pH 7.0, 1 mM DTT, 0.01% Triton X-100) to a final concentration of 6 nM TNKS2 and 10×NAD^+ solution was diluted with the modified assay buffer (s. above) to a final 0.445×NAD^+ solution doped with 100 Bq/ul [^3H]-NAD^+ [Catalog #NET443H050UC, Perkin Elmer, Waltham, Mass., USA]. Substrate solution (10 ul) was incubated with different test compound concentrations (2.5 ul in 10% DMSO in modified assay buffer) or control (2.5 ul 10% DMSO in modified assay buffer only) and enzyme (10 ul) over night at room temperature. Incorporated tritium was measured after addition of 50 ul SPA beads (1 mg/ml) [Catalog #RPNQ0095 20 mg/ml, Perkin Elmer, Waltham, Mass., USA; diluted 1:10 with Dulbecco's phosphate buffered saline, PBS Catalog #D8537, Sigma-Aldrich, Steinheim, Germany] and detection of the photon emission with a beta count plate reader [Wallac MicroBeta®, Perkin Elmer, Waltham, Mass., USA].

Assay [2] concerns HEK293 FOP control reporter cell line. As to the kind of experiment: HEK293 FOP Assay (FOP control vector luciferase reporter). It is filed as cell-based. Particulars: Homo sapiens. How it is done:
In a parallel approach, HEK293 cells were cotransfected with the FOP control vector and pcDNA3. The FOP vector is identical to the TOP construct, but it contains instead of functional TCF elements a randomized, non-functional sequence. For this transfection a stable transfected cell line was generated as well, based on selection with Geneticin (1 mg/ml).
In preparation of the assay, the two cell lines were plated 24 hrs before beginning the test at 10000 cells per well in a 384 micro titre plate (MTP) in 30 μl growth medium. […] The recombinant human Wnt-3a was thereby applied between 2500 and 5 ng/ml in two-fold dilution steps.
Selective inhibitory activity for small molecules on the wildtype Wnt pathway was determined after parallel incubation of both (TOP and FOP) HEK293 reporter cell lines with a compound dilution series from 50 μM to 15 nM in steps of 3.16-fold dilutions in CAFTY buffer (130 mM sodium chloride, 5 mM potassium chloride, 20 mM HEPES, 1 mM magnesium chloride, 5 mM sodium bicarbonate, pH 7.4) containing 2 mM Ca^2+ and 0.01% BSA.
The compounds were thereby serially prediluted in 100% DMSO and thereafter 50 fold into the CAFTY compound dilution buffer (described above).

Setting [3] is: HEK293 TOP reporter cell line, Wnt-3a at EC50, 16 hours incubation, compound dilution series 50 μM to 15 nM.
Where [4] appears, read: HEK293 TOP reporter cells, Wnt3a at EC50, 16 hours, luciferase.
[5] abbreviates: HEK293 FOP control reporter cells, 16 hours, luciferase, dilution series from 50 μM.
The mark [6] stands for this setting: HEK293 FOP control reporter cell line, 16 hours incubation, compound dilution series 50 μM to 15 nM.

The IC50 is the point on the concentration scale where inhibition reaches its midpoint. In the case of `CNC(=O)c1nc[nH]c1C(=O)Nc1ccc(NC(=O)c2ccccc2S(C)(=O)=O)cc1` [Example 249, N^4-methyl-N^5-(4-{[2-(methylsulfonyl)benzoyl]amino}phenyl)-1H-imidazole-4,5-dicarboxamide], the IC50 in assay [1] (setting [3]) was 2.4 µM; on TNKS2, 5.7 µM.

As for `CNC(=O)c1nc[nH]c1C(=O)Nc1ccc(NC(=O)c2cccnc2Cl)cc1` [Example 2, N^5-(4-{[(2-chloropyridin-3-yl)carbonyl]amino}phenyl)-N^4-methyl-1H-imidazole-4,5-dicarboxamide], the IC50 in assay [1] (setting [3]) was 7.05 µM; in assay [1] (setting [4]), 6.1 µM; in assay [2] (setting [5]), ≥ 50 µM; on TNKS2 it was > 10 µM.

On to `CCNC(=O)c1nc[nH]c1C(=O)Nc1ccc(NC(=O)c2ccc(OC(F)(F)F)cc2F)cc1` [Example 262, N^4-ethyl-N^5-(4-{[2-fluoro-4-(trifluoromethoxy)benzoyl]amino}phenyl)-1H-imidazole-4,5-dicarboxamide], for which the IC50 in assay [1] (setting [3]) was 8.7 µM; against TNKS2 it was > 10 µM.

Take `CCNC(=O)c1nc[nH]c1C(=O)Nc1ccc(NC(=O)c2ccc(OC(F)F)cc2F)cc1` [Example 258, N^5-(4-{[4-(difluoromethoxy)-2-fluorobenzoyl]amino}phenyl)-N^4-ethyl-1H-imidazole-4,5-dicarboxamide]: the IC50 in assay [1] (setting [3]) was 4.5 µM; against TNKS2, > 10 µM.

Regarding `CNC(=O)c1nc[nH]c1C(=O)Nc1ccc(NC(=O)c2ccccc2F)cc1` [Example 326, N^5-{4-[(2-fluorobenzoyl)amino]phenyl}-N^4-methyl-1H-imidazole-4,5-dicarboxamide], the figures for the IC50 (in assay [1] (setting [3]); against TNKS2) were 3 µM and > 10 µM, respectively.

`CC(CNC(=O)c1[nH]cnc1C(=O)Nc1ccc(NC(=O)c2ccccc2Cl)cc1)N1CCN(C)CC1` (stereo not shown) [Example 186, N^4-{4-[(2-chlorobenzoyl)amino]phenyl}-N^5-[2-(4-methylpiperazin-1-yl)propyl]-1H-imidazole-4,5-dicarboxamide]: the figures for the IC50 in assay [1] (setting [3]) and in assay [2] (setting [6]) were 0.42 µM and 28 µM, respectively.

On to `O=C(Nc1ccc(NC(=O)c2[nH]cnc2C(=O)N2CC3(COC3)C2)cc1)c1ccc(F)cc1` [Example 34, N-{4-[(4-fluorobenzoyl)amino]phenyl}-5-(2-oxa-6-azaspiro[3.3]hept-6-ylcarbonyl)-1H-imidazole-4-carboxamide], for which the IC50 in assay [1] (setting [3]) was 12 µM; in assay [1] (setting [4]), 12 µM; in assay [2] (setting [5]), ≥ 50 µM.

Turning to `O=C(Nc1ccc(NC(=O)c2nc[nH]c2C(=O)NCCCCN2CCCCC2)cc1)c1ccc(F)cc1` [Example 201, N^4-{4-[(4-fluorobenzoyl)amino]phenyl}-N^5-[4-(piperidin-1-yl)butyl]-1H-imidazole-4,5-dicarboxamide], the IC50 is 4.5 µM in assay [1] (setting [3]) and 0.03 µM in assay [2] (setting [6]).
